Results taken from article PMC5011932, “Comparative pharmacokinetics and pharmacodynamics of intravenous artelinate versus artesunate in uncomplicated Plasmodium coatneyi-infected rhesus monkey model” (Malaria Journal, 2016).
“And” between values parts separate entries of the source, which are not always exact repeats. Equal values may be shown once. Read-outs that look alike come from different tables or passages of the source.

Legend:
[1] = rhesus monkey, in vivo
Description: (§1) These doses were chosen as the minimal effective doses (from previous model development and validation studies, unpublished data) and blood was collected for pharmacokinetic analysis. After a week wash-out and recovery period, P. coatneyi (1 mL of >50,000 parasitized RBCs per microlitre or 5 × 10^6 RBC with a 1 % parasitaemia) were inoculated from a donor monkey into all the monkeys. The treatment was initiated at day 6 after inoculation at a parasitaemia ≥3 % or >200,000 parasites μL^−1 when the cohort of animals was minimally symptomatic. Drugs were given for 3 days with a loading dose initially followed by ½ of the first dose on the 2nd and 3rd days.
(§2) Blood was collected for pharmacokinetic/pharmacodynamics (PK/PD) analysis after the first dose only due to rapid clearance of artemisinin derivatives. Heparinized blood was collected at 0, 5, 20, 40 min, 1, 3, and 6 h post-dose and plasma samples were separated within 2 h by centrifugation (1500g, 10 min). Aliquots of samples were made for simultaneous measurement by HPLC [16] and bioassay [14], and stored at −80 °C until analysis. All glassware was silanized before use with a 0.5 % aqueous solution (v/v) of Pierce Aquasil (Rockford, IL, USA) according to the manufacturer’s recommended procedure. Solid-phase extraction was performed on C-18 elution cartridge (3.0 ml, J.T. Baker Co.) using a VAC ELUTE SPS24 sample processing station (Analytichem International, Harbour City, CA, USA). The cartridge was preconditioned by sequential washing with 2.5 ml acetonitrile, 2.5 ml methanol and 2.5 ml water. One ml of distilled water was added to the cartridge before adding plasma sample (0.5 ml). Then, the cartridge was washed with 2.5 ml distilled water, 2.5 ml of 0.05 % H3PO4 (pH 4.5) and 2.5 ml of 20 % acetonitrile and completely dried by closing the vacuum for 15 min. The analytes were collected by eluting with 0.5 ml methanol three times and then with 0.5 ml 90:10 n-butyl chloride: ethyl acetate twice. The organic phases were pooled. The combined organic phases were then evaporated to dryness under a stream of nitrogen at room temperature. Extraction residues were reconstituted with 50:50 ethanol: water (0.3 ml), at least 16 h before injection. The injection volume was 100 µl for all samples.
(§3) The plasma concentration of parent drugs, AL and AS, and their primary metabolites, DHA and 2-hydroxyartelinate (OHAL) respectively, were measured by HPLC with electrochemical detection in reductive mode (HPLC-ECD) [16], which was the only method for artemisinin compounds then (Additional files 1 and 2).
(§4) HPLC with reductive electrochemical detection was performed using a model BAS 200B liquid chromatography (Bioanalytical Systems, Inc., West Lafayette, Indiana, USA). A Nova-Pak® C18 (3.9 × 150 mm, Waters Corporation, Milford, MA, USA) was used with 40 % acetonitrile in sodium acetate buffer (pH 3.6) as mobile phase. Detection was performed using a thin dual-layer glassy carbon electrode run in parallel mode at a potential of −1.0 V versus Ag/AgCl. The system was operated at the following temperatures: mobile phase 35 °C, column and detector oven 30 °C, cell 31 °C with the flow rate of 1.5 mL min^−1. Artemisinin (ART) was used as an internal standard. Samples were injected via Gilson model 231 XL sampling injector equipped with a 100 µL loop, a Gilson model 401 dilutor/pipettor, a sampler controller keypad (Gilson Medical Electronics, Middleton, WI, USA), and a Valco electrically actuated switching valve (Valco Instrument Co. Inc) was used. This system automatically deoxygenated and injected sample, which permits the high sample throughput associated with automated injection. Data were acquired and analysed using a Millennium^32 Chromatography Manager (Waters Corporation, Milford, MA, USA).

[2] = Plasma pharmacokinetics by HPLC-ECD after IV dose in rhesus monkeys; details: for concentration at 0.08 h / concentration at 0.33 h / concentration at 0.67 h / concentration at 1 h / concentration at 3 h / concentration at 6 h: intravenous, 8 mg kg^-1, Plasma concentration; for AUC(0-t): AUC 0-20, mean; for half-life: t 1/2, z
Description: as §1, §2, §3, §4

Plasmodium coatneyi = test: In vivo pharmacodynamics (parasite clearance) in uncomplicated P. coatneyi-infected splenectomized rhesus monkey model
Description: Twenty-two adult colony-born, Indian-origin rhesus macaques (Macaca mulatta) naïve monkeys were splenectomized and recovered well more than 1 month prior to entering the study. […] Twenty-two animals were randomized to two experiments of 11 monkeys. […] The control monkeys received intramuscular quinine treatment and the experimental animals received intravenous artemisinin candidates.
Based on our previous model validation, blood smears were performed to detect malaria parasites starting prior to inoculation on day 0 and continued daily (0700–0800 h). The monkeys were physically restrained in the squeeze cage restraint apparatus and approximately 0.1–0.2 ml whole blood was collected from each monkey by lancet puncture of the lateral auricular vein. Thick and thin smears were made on the same microscope glass slide and subsequently fixed in methanol and stained with Giemsa. When the smears were positive, white blood cell count (WBC) and/or red blood cell count (RBC) were also performed using automated haematology analyzer Sysmex K800 to calculate parasite density. Haematocrits were checked as needed. At study days 6–12, additional blood samples were obtained from all animals in the afternoon (1500–1600 h) to monitor parasitaemia levels. Daily blood smears were continued until two consecutive days with negative smears. Then the smear monitoring schedule was reduced to two times weekly for 2 weeks and then weekly for 6 weeks after completion of the last treatment.
Blood smear staining and parasitaemia determination took about 2 h. […] The control monkey received quinine treatment and the ten experimental animals received intravenous artemisinin derivative candidate.
After a week wash-out and recovery period, P. coatneyi (1 mL of >50,000 parasitized RBCs per microlitre or 5 × 10^6 RBC with a 1 % parasitaemia) were inoculated from a donor monkey into all the monkeys. The treatment was initiated at day 6 after inoculation at a parasitaemia ≥3 % or >200,000 parasites μL^−1 when the cohort of animals was minimally symptomatic. Drugs were given for 3 days with a loading dose initially followed by ½ of the first dose on the 2nd and 3rd days.
Blood smear were collected once daily in the morning. Once positive parasitaemia was observed and reached 2000 parasites μL^−1, blood smears were collected twice, in the morning and afternoon. Blood for slides preparation were collected from ear for thick and thin smear preparation. Blood films on glass slides were air dried, fixed with 100 % methanol, stained with Giemsa, and read under ×100 magnification oil emersion for parasite determination.
First, a thick smear was performed for parasite detection by reading the slides at least 50 fields under ×100 magnification oil emersion.

P. falciparum clone (W2) = test: Ex vivo Plasmodium falciparum-based bioassay (BA) of rhesus plasma, effect kinetics (ePD) as DHA equivalents; assay type: cell-based; details: for Bioactivity %AUC20 / Bioactivity Cl: mean
Description: Blood was collected for pharmacokinetic/pharmacodynamics (PK/PD) analysis after the first dose only due to rapid clearance of artemisinin derivatives. Heparinized blood was collected at 0, 5, 20, 40 min, 1, 3, and 6 h post-dose and plasma samples were separated within 2 h by centrifugation (1500g, 10 min). Aliquots of samples were made for simultaneous measurement by HPLC [16] and bioassay [14], and stored at −80 °C until analysis.
The plasma anti-malarial activities of the artemisinin derivatives were measured using a previously published method [14]. […] After centrifugation, the supernatant (100 µL) was transferred to a 96-well flat bottom plate. Twofold serial dilutions were then made using heat inactivated pooled control serum (human:rhesus = 1:1). A suspension of malaria (W2 clone) infected erythrocytes was added to each well. The microtitre plate was placed into a gas-tight plexiglass chamber, flushed with a gas mixture of 90 % CO2, 5 % O2, and 5 % N2, and placed into an incubator (37 °C). Following 24 h incubation, the plate was removed from the chamber and pulsed with [^3H]-hypoxanthine solution to each well and incubated for another 18–20 h before harvesting. The incorporation of [^3H]-hypoxanthine by the parasites in each well was determined by counting in a scintillation counter.
A dose–response curve for each plasma sample was constructed by plotting [^3H]-hypoxanthine uptake on the Y-axis against the corresponding dilution factor on the X-axis after logarithmic transformation. The dilution factor value that inhibits parasite growth by 50 % (DF50) of each plasma sample was determined.

[3] = Deaths and tolerability in P. coatneyi-infected rhesus monkeys; assay type: in vivo, rhesus macaques (Macaca mulatta); details: for Deaths: infected rhesus, IV AL 11.8 mg kg^−1
[4] = set-up: method as in PMID 16860356, PMID 16126619; details: rats; cited from earlier work
[5] = DHA equivalents, infected rhesus

2-hydroxyartelinate [OHAL]
t1/2, metabolite (M) [1]: 42.2 min

C[C@H]1[C@@H](O)O[C@@H]2O[C@@]3(C)CC[C@H]4[C@H](C)CC[C@@H]1[C@@]24OO3 [DHA, dihydroartemisinin]
Time of highest level post-dose ([2]; after IV AS): 5 min
%AUC20 ([2]; mean, healthy rhesus): 23.8%
%AUC20 ([2]; mean, infected rhesus): 27.0%
concentration at 0.08 h ([2]; rhesus monkey, plasma, mean, 0.08 h, healthy rhesus, after IV AL 11.8 or AS 8.0 mg/kg): 7.89 µM
concentration at 0.08 h ([2]; rhesus monkey, plasma, mean, 0.08 h, infected rhesus, after IV AL 11.8 or AS 8.0 mg/kg): 6.74 µM
concentration at 0.33 h ([2]; rhesus monkey, plasma, mean, 0.33 h, healthy rhesus): 6.75 µM
concentration at 0.33 h ([2]; rhesus monkey, plasma, mean, 0.33 h, infected rhesus): 5.92 µM
concentration at 0.67 h ([2]; rhesus monkey, plasma, mean, 0.67 h, healthy rhesus): 4.51 µM
concentration at 0.67 h ([2]; rhesus monkey, plasma, mean, 0.67 h, infected rhesus): 4.21 µM
concentration at 1 h ([2]; rhesus monkey, plasma, mean, 1.0 h, healthy rhesus): 3.52 µM
concentration at 1 h ([2]; rhesus monkey, plasma, mean, 1.0 h, infected rhesus): 2.68 µM
concentration at 3 h ([2]; rhesus monkey, plasma, mean, 3.0 h, healthy rhesus): 310 nM
concentration at 3 h ([2]; rhesus monkey, plasma, mean, 3.0 h, infected rhesus): 160 nM
concentration at 6 h ([2]; rhesus monkey, plasma, mean, 6.0 h, healthy rhesus): 0 nM
concentration at 6 h ([2]; rhesus monkey, plasma, mean, 6.0 h, infected rhesus): 0 nM
AUC(0-t) ([2]; rhesus monkey, plasma, iv, 8 mg/kg, healthy rhesus): 2.17 µM·h
AUC(0-t) ([2]; rhesus monkey, plasma, iv, 8 mg/kg, infected rhesus): 1.87 µM·h
AUC(0-inf) ([2]; rhesus monkey, plasma, iv, 8 mg/kg, AUC(0-inf), mean, healthy rhesus): 9.28 µM·h
AUC(0-inf) ([2]; rhesus monkey, plasma, iv, 8 mg/kg, AUC(0-inf), mean, infected rhesus): 7.45 µM·h
Cmax ([2]; rhesus monkey, plasma, iv, 8 mg/kg, Cmax, mean, P. coatneyi infected rhesus, IV AL/Lys 11.8 or AS/Na 8 mg/kg, analyte = label): 6.85 µM
Cmax ([2]; rhesus monkey, plasma, iv, 8 mg/kg, Cmax, mean, healthy rhesus, IV AL/Lys 11.8 or AS/Na 8 mg/kg, analyte = label): 8.1 µM
half-life ([2]; rhesus monkey, plasma, iv, 8 mg/kg, mean, healthy rhesus): 35.9 min
half-life ([2]; rhesus monkey, plasma, iv, 8 mg/kg, mean, infected rhesus): 30 min

CC1CCC2C(C)C(OCc3ccc(C(=O)O)cc3)OC3OC4(C)CCC1C32OO4.CC1CCC2C(C)C(OCc3ccc(C(=O)O)cc3)OC3OC4(C)CCC1C32OO4.O (stereo not drawn) [IV AL, 4-(10′ dihyro-artemisinin-oxymethyl) benzoic acid hemihydrate]
Parasite/µL, mean (Plasmodium coatneyi; 0.29 day post-dose): 704,770 Parasite/µL
Parasite Reduction (Plasmodium coatneyi; 0.29 day post-dose, IV AL experiment (mean; IM QN = its control monkey)): 20.4%
Parasite/µL, mean (Plasmodium coatneyi; 1.00 day post-dose): 124,294 Parasite/µL
Parasite Reduction (Plasmodium coatneyi; 1.00 day post-dose, IV AL experiment): 82.2%
Parasite/µL, mean (Plasmodium coatneyi; 1.29 day post-dose): 32,703 Parasite/µL
Parasite Reduction (Plasmodium coatneyi; 1.29 day post-dose, IV AL experiment): 95.2%
Parasite/µL, mean (Plasmodium coatneyi; 2.00 day post-dose): 6,978 Parasite/µL
Parasite Reduction (Plasmodium coatneyi; 2.00 day post-dose, IV AL experiment): 98.9%
Parasite/µL, mean (Plasmodium coatneyi; 2.29 day post-dose): 3,976 Parasite/µL
Parasite Reduction (Plasmodium coatneyi; 2.29 day post-dose, IV AL experiment): 99.4%
Parasite/µL, mean (Plasmodium coatneyi; 3.00 day post-dose): 895 Parasite/µL
Parasite Reduction (Plasmodium coatneyi; 3.00 day post-dose, IV AL experiment): 99.9%
Parasite/µL, mean (Plasmodium coatneyi; 3.29 day post-dose): 377 Parasite/µL
Parasite Reduction (Plasmodium coatneyi; 3.29 day post-dose, IV AL experiment): 99.9%
Parasite/µL, mean (Plasmodium coatneyi; 4.00 day post-dose): 568 Parasite/µL
Parasite Reduction (Plasmodium coatneyi; 4.00 day post-dose, IV AL experiment): 99.9%
Parasite/µL, mean (Plasmodium coatneyi; 4.29 day post-dose): 8,704 Parasite/µL
Parasite Reduction (Plasmodium coatneyi; 4.29 day post-dose, IV AL experiment): 98.5%
Parasite/µL, mean (Plasmodium coatneyi; 5.00 day post-dose): 2,880 Parasite/µL
Parasite Reduction (Plasmodium coatneyi; 5.00 day post-dose, IV AL experiment): 99.5%
Parasite/µL, mean (Plasmodium coatneyi; 5.29 day post-dose): 1,141 Parasite/µL
Parasite Reduction (Plasmodium coatneyi; 5.29 day post-dose, IV AL experiment): 99.8%
Parasite/µL, mean (Plasmodium coatneyi; 6.00 day post-dose): 18,619 Parasite/µL
Parasite Reduction (Plasmodium coatneyi; 6.00 day post-dose, IV AL experiment): 96.8%
Parasite/µL, mean (Plasmodium coatneyi; 6.29 day post-dose): 92,458 Parasite/µL
Parasite Reduction (Plasmodium coatneyi; 6.29 day post-dose, IV AL experiment): 84.4%
Parasite/µL, mean (Plasmodium coatneyi; 7.00 day post-dose): 51,036 Parasite/µL
Parasite Reduction (Plasmodium coatneyi; 7.00 day post-dose, IV AL experiment): 91.4%
PCT of individual animals (Plasmodium coatneyi; IV AL: the only two determinable, IV AS: the two most rapid): 5.3 days and 4.0 days
Recrudescence, median (range, n) (Plasmodium coatneyi; in vivo): 6.5 (6–7, 2) days
R, Day (recrudescence day), mean (Plasmodium coatneyi; n 2 IV AL, n 10 IV AS): 6.50 days
Treatment failure (Plasmodium coatneyi; parasite counts never reached zero): Six animals failed treatment
PC50 (Plasmodium coatneyi; range in evaluable animals (4 of 8 IV AL, 3 of 10 IV AS)): 2.72 to 10.9 h
Antimalarial activity expressed as DHA equi., mean (P. falciparum clone (W2); 0.08 h, healthy rhesus): 5.69 µmol/L
Antimalarial activity expressed as DHA equi., mean (P. falciparum clone (W2); 0.08 h, infected rhesus): 7.58 µmol/L
Antimalarial activity expressed as DHA equi., mean (P. falciparum clone (W2); 0.33 h, healthy rhesus): 4.09 µmol/L
Antimalarial activity expressed as DHA equi., mean (P. falciparum clone (W2); 0.33 h, infected rhesus): 5.32 µmol/L
Antimalarial activity expressed as DHA equi., mean (P. falciparum clone (W2); 0.67 h, healthy rhesus): 2.56 µmol/L
Antimalarial activity expressed as DHA equi., mean (P. falciparum clone (W2); 0.67 h, infected rhesus): 3.58 µmol/L
Antimalarial activity expressed as DHA equi., mean (P. falciparum clone (W2); 1.0 h, healthy rhesus): 1.75 µmol/L
Antimalarial activity expressed as DHA equi., mean (P. falciparum clone (W2); 1.0 h, infected rhesus): 2.58 µmol/L
Antimalarial activity expressed as DHA equi., mean (P. falciparum clone (W2); 3.0 h, healthy rhesus): 0.07 µmol/L
Antimalarial activity expressed as DHA equi., mean (P. falciparum clone (W2); 3.0 h, infected rhesus): 0.19 µmol/L
Antimalarial activity expressed as DHA equi., mean (P. falciparum clone (W2); 6.0 h, healthy rhesus): 0 µmol/L
Antimalarial activity expressed as DHA equi., mean (P. falciparum clone (W2); 6.0 h, infected rhesus): 0 µmol/L
AUC0–20, ePD (P. falciparum clone (W2); [5]): 115 µM·min
AUC0–∞, ePD (P. falciparum clone (W2); [5]): 426 µM·min
Bioactivity %AUC20 (P. falciparum clone (W2); healthy rhesus): 31.7%
Bioactivity Cl (P. falciparum clone (W2); healthy rhesus): 4.75 L hr^-1 kg ^-1
Bioactivity %AUC20 (P. falciparum clone (W2); infected rhesus): 27.7%
Bioactivity Cl (P. falciparum clone (W2); infected rhesus): 3.08 L hr^-1 kg ^-1
Deaths [3]: two deaths in the infected animals within 2.5 h
Deaths ([3]; listed as AL): two died following AL regimen before parasite clearance
Tolerability ([3]; other animals in the experiment): well tolerated by the other animals
toxicity [4]: more toxic than AS
Plasma concentration, mean ([2]; 0.08 h, healthy rhesus, after IV AL 11.8 or AS 8.0 mg/kg): 61.58 µmol/L
Plasma concentration, mean ([2]; 0.08 h, infected rhesus, after IV AL 11.8 or AS 8.0 mg/kg): 62.96 µmol/L
Plasma concentration, mean ([2]; 0.33 h, healthy rhesus): 43.27 µmol/L
Plasma concentration, mean ([2]; 0.33 h, infected rhesus): 46.68 µmol/L
Plasma concentration, mean ([2]; 0.67 h, healthy rhesus): 26.12 µmol/L
Plasma concentration, mean ([2]; 0.67 h, infected rhesus): 26.79 µmol/L
Plasma concentration, mean ([2]; 1.0 h, healthy rhesus): 16.73 µmol/L
Plasma concentration, mean ([2]; 1.0 h, infected rhesus): 21.04 µmol/L
Plasma concentration, mean ([2]; 3.0 h, healthy rhesus): 0.68 µmol/L
Plasma concentration, mean ([2]; 3.0 h, infected rhesus): 1.24 µmol/L
Plasma concentration, mean ([2]; 6.0 h, healthy rhesus): 0 µmol/L
Plasma concentration, mean ([2]; 6.0 h, infected rhesus): 0.05 µmol/L
DHA in plasma after IV AL ([2]; healthy or infected monkeys): no DHA was found in plasma
AUC0–20, parent drug ([2]; infected rhesus): 925 µM·min
AUC0–∞, parent drug ([2]; infected rhesus): 3706 µM·min
Cmax ([2]; mean, P. coatneyi infected rhesus, IV AL/Lys 11.8 or AS/Na 8 mg/kg, analyte = label): 61.5 µM
%AUC20 ([2]; mean, healthy rhesus): 33.4%
AUC 0-20 ([2]; mean, healthy rhesus): 940 µmol·min/L
AUC(0-inf) ([2]; mean, healthy rhesus): 3,039 µmole min L^-1
Cl ([2]; mean, healthy rhesus): 0.45 L hr^-1 kg ^-1
Vz ([2]; mean, healthy rhesus): 0.26 L kg ^-1
t 1/2, z ([2]; mean, healthy rhesus): 25.3 min
Cmax ([2]; mean, healthy rhesus, IV AL/Lys 11.8 or AS/Na 8 mg/kg): 61.6 µM
%AUC20 ([2]; mean, infected rhesus): 31.5%
AUC 0-20 ([2]; mean, infected rhesus): 954 µmol·min/L
AUC(0-inf) ([2]; mean, infected rhesus): 3,392 µmole min L^-1
Cl ([2]; mean, infected rhesus): 0.43 L hr^-1 kg ^-1
Vz ([2]; mean, infected rhesus): 0.28 L kg ^-1
t 1/2, z ([2]; mean, infected rhesus): 29.6 min
Vz, parent ([2]; median, infected rhesus): 0.259 L/kg
% AUC0–20 / AUC0–∞ ([2]; parent drug, infected rhesus): 24.6%
Cmax ([2]; read-out: Cmax, parent drug, infected rhesus): 60.2 µM
